Data from PubChem BioAssay (NCI).
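Each compound was tested at five concentrations against cells in 96-well plates for 48 hours. GI50 is the concentration that inhibits growth by half. TGI: total growth inhibition.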

Experiments:
Assay in all cases: inhibition of tumour cell growth, NCI panel, 48 h
SNB-19 CNS = test system: SNB-19 CNS
TK-10 renal = test system: TK-10 renal
SR leukemia = test system: SR leukemia
786-0 renal = test system: 786-0 renal
LOX IMVI melanoma = test system: LOX IMVI melanoma
RXF 393 renal = test system: RXF 393 renal
PC-3 prostate = test system: PC-3 prostate
MDA-MB-231 breast = test system: MDA-MB-231 breast
MCF7 breast = test system: MCF7 breast
T-47D breast = test system: T-47D breast

Row | Compound | TGI (SNB-19 CNS) [µM] | TGI (TK-10 renal) [µM] | TGI (SR leukemia) [µM] | TGI (786-0 renal) [µM] | TGI (LOX IMVI melanoma) [µM] | TGI (RXF 393 renal) [µM] | GI50 (SNB-19 CNS) [µM] | GI50 (TK-10 renal) [µM] | GI50 (786-0 renal) [µM] | GI50 (LOX IMVI melanoma) [µM] | GI50 (RXF 393 renal) [µM] | GI50 (PC-3 prostate) [µM] | TGI (PC-3 prostate) [µM] | GI50 (MDA-MB-231 breast) [µM] | TGI (MDA-MB-231 breast) [µM] | GI50 (MCF7 breast) [µM] | TGI (MCF7 breast) [µM] | GI50 (T-47D breast) [µM] | TGI (T-47D breast) [µM] | GI50 (SR leukemia) [µM]
1 | O=C1c2ccccc2C2(O)Oc3cccc(O)c3C12O (configuration not stated) | > 100 | > 100 | > 100 | > 100 | > 100 |  |  |  |  |  |  |  |  |  |  |  |  |  |  | 
2 | Cn1cnc([N+](=O)[O-])c1Sc1nnc(C(F)(F)F)n1C | > 100 | 74.4 | 45 | > 100 | 30.5 |  |  |  |  |  |  |  |  |  |  |  |  |  |  | 
3 | O=C1NC(=S)NC(=O)C1=Cc1ccc2ccccc2n1 | > 100 | > 100 | > 100 | > 100 | > 100 | > 100 |  |  |  |  |  |  |  |  |  |  |  |  |  | 
4 | C1C[OH+]CC[OH+]CC[OH+]CC[OH+]CC[OH+]CC[OH+]1.[Cl-].[Ta+5] | > 100 | > 100 |  | > 100 | > 100 | > 100 | 24.3 | > 100 | > 100 | > 100 | > 100 |  |  |  |  |  |  |  |  | 
5 | C=C(C(=O)OC)[C@@H]1C[C@@H](O)[C@]2(C)CC/C=C(\C)CCC[C@H](C)[C@H](O)C1O2 | > 100 | 48.8 |  | > 100 | > 100 | > 100 | 79.3 | 19.6 | > 100 | 32.8 | 53.3 | 30.9 | > 100 | 58.5 | > 100 | 31.7 | > 100 | 52.8 | > 100 | 
6 | O=C(/C=C/c1ccc(Cl)cc1)c1ccncc1 | > 100 | > 100 | > 100 | > 100 | 73.6 | 88.8 |  |  |  |  |  |  |  |  |  |  |  |  |  | 
7 | CN1c2ccccc2C(C)(C)C12CC(c1ccc(Cl)c(S(=O)(=O)N3CCCC3)c1)=NO2 (configuration not stated) | > 100 | > 100 |  | > 100 |  | > 100 | > 100 | > 100 | > 100 |  | > 100 | 59 | > 100 | > 100 | > 100 | > 100 | > 100 | > 100 | > 100 | 
8 | C=CCNC(=S)OCCCCCCCCCC | 83.9 | 24.1 | 78.3 | 32.6 | 26.9 | 29.1 |  |  |  |  |  |  |  |  |  |  |  |  |  | 
9 | COC1(OC)c2ccccc2C2(O)c3ccccc3C(=O)C12 (configuration not stated) | > 100 | > 100 | > 100 | > 100 | > 100 | > 100 |  |  |  |  |  |  |  |  |  |  |  |  |  | 
10 | COc1ccc(-c2c(C#N)c(N)nc3c2CCCc2ccc(F)cc2-3)cc1OC | > 92.1 | 1.7 |  | 30.3 | 19.6 | > 82.9 | 20.7 | < 0.0163 | 0.0964 | < 0.0422 | 0.0586 | < 0.0185 |  | < 0.0399 | 0.758 | < 0.01 | > 100 | 22.3 | > 100 | 
11 | COC(=O)[C@H](Cc1ccccc1)NC(=O)[C@@H](OC)[C@@H]1Cc2cc3cc(OC4CC(OC5CC(O)C(O)C(C)O5)C(O)C(C)O4)c(C)c(O)c3c(O)c2C(=O)[C@H]1OC1CC(OC2CC(OC3CC(C)(O)C(O)C(C)O3)C(O)C(C)O2)C(O)C(C)O1 (some centres not stated) | > 14.3 | > 14.3 | 1.04 | > 14.3 |  | 0.0252 | 0.0173 | 0.0439 | 0.0188 |  | 0.0046 | 0.0215 | 0.429 | 0.0305 | 9.09 | 0.00534 | 0.241 | 0.019 | > 14.3 | 0.00736
12 | CC(C)(C)C(=O)OCC(COC(=O)C(C)(C)C)[N+](=O)[O-] | > 100 | > 100 | > 100 | > 100 | > 100 | > 100 |  |  |  |  |  |  |  |  |  |  |  |  |  | 
13 | CCOC(=O)C1(C(=O)OCC)CC=C(C)CC12C(=O)Nc1ccccc12 (configuration not stated) | > 100 | > 100 |  | > 100 | > 100 |  |  |  |  |  |  |  |  |  |  |  |  |  |  | 
14 | COc1ccc(N2C(=O)C3c4[nH]c5ccccc5c4C4CCC(C(C)(C)C)CC4C3C2=O)cc1OC (configuration not stated) | 71.3 |  | 39.9 | 33.9 |  | 29.7 |  |  |  |  |  |  |  |  |  |  |  |  |  | 
15 | O=C(O/N=C1/CCCC/C1=C\c1ccccc1)c1ccc(Cl)cc1 | > 100 | > 100 | > 100 | > 100 | > 100 | > 100 |  |  |  |  |  |  |  |  |  |  |  |  |  | 
16 | COC(=O)c1ccccc1N=Cc1ccc(N(CCC#N)S(=O)(=O)c2ccccc2)cc1 | > 100 | > 100 | > 100 | > 100 | > 100 | > 100 |  |  |  |  |  |  |  |  |  |  |  |  |  | 
17 | COc1cc(/C=C2\CCc3ccccc3C2=O)cc(OC)c1OC | 29.2 | 33.6 | > 100 | 29.3 | 24.4 | 29 |  |  |  |  |  |  |  |  |  |  |  |  |  | 
18 | COc1ccc(S(=O)(=O)N/N=C(\C)CN2C(=O)c3ccccc3C2=O)cc1 | > 100 | > 100 | > 100 | > 100 | > 100 |  |  |  |  |  |  |  |  |  |  |  |  |  |  | 
19 | CCCCC#Cc1cccc(=O)o1 | > 100 | > 100 |  | > 100 |  | > 100 | > 100 | > 100 | > 100 |  | 44.3 | 25.7 | > 100 | 6.43 | > 100 | 8.9 | > 100 | 29.2 | > 100 | 
20 | COC(=O)C(=O)C(C#N)c1ccc(Cl)c(Cl)c1 (configuration not stated) |  | > 100 | > 100 | > 100 | > 100 |  |  |  |  |  |  |  |  |  |  |  |  |  |  | 
21 | COc1cc2c3c(n(C)c(=O)c2cc1OC)-c1cc2c(cc1/C3=C\[C@@H](N)CCCCN)OCO2 | > 100 | > 75 |  | > 100 | 3.9 | > 50.9 | 1.46 | 7.12 | 2.06 | 0.298 | 12.7 | 2.71 | > 53.1 | 1.54 | > 48.5 | 0.657 | > 49.3 | 13 | > 100 | 
22 | CS(=O)(=O)CS(=O)CS(=O)CS(=O)CC(NC(=O)CCC(N)C(=O)O)C(=O)O (configuration not stated) | > 100 | > 100 | > 100 | > 100 | > 100 |  |  |  |  |  |  |  | > 100 |  | > 100 |  | > 100 |  | > 100 | 
